Values joined by “and” are separate entries in the source; they are usually repeats but may differ in a detail not shown here. Identical values can stand only once. Like-named read-outs stand apart in the source and are kept apart here. One block for each molecule: values may come before it.
How the values were obtained:
FFA1-Nluc = FFA1-Nluc (Homo sapiens, UniProt O14842); assay: Bystander BRET internalisation assay, FFA1-Nluc in HEK293T cells; assay type: cell-based; set-up: expressed in transfected cells; host or cells: HEK293T (ATCC, CRL-3216), transient; conditions: in words; up to 60 min
Description: Cells were transfected using a reverse transfection protocol while plating into a poly-D-lysine coated white 96-well plates. Cells were plated at 60,000 cells with 100 ng of plasmid DNA and 0.6 µg of polyethyleneimine (PEI) per well. Cells were cultured for 24 h before washing with HBSS and incubating in HBSS at 37 °C for 30 min. NanoGlo substrate was added a final 1:800 dilution and plates incubated for 10 min at 37 °C. […] After 5 min of baseline measurements, readings were paused and test compounds added to the plate.

Nluc-FFA1 = target: T1, Nluc-FFA1 (Homo sapiens, UniProt O14842); assay: NanoBRET binding (saturation, competition, kinetics) at N terminal Nluc tagged FFA1; conditions: for Specific BRET (690/450)%: Figure 4Ci; for Specific BRET (690/450)% / Specific BRET (540/450)%: technical duplicates; for Specific BRET (540/450)%: Figure 4Cii
T1 construct: expressed in transfected cells

FFA1 = FFA1 (Homo sapiens, UniProt O14842); assay: NanoBiT arrestin-3 recruitment in HEK293T cells; assay type: cell-based; set-up: expressed in transfected cells; host or cells: HEK293T, transient; conditions: for EMax (% TUG-905) arrestin-3 recruitment: percentage of the response to 10 μM TUG-905; for EMax (% TUG-905) arrestin-3 recruitment / pEC50 arrestin-3 recruitment: ± SEM; for pEC50 arrestin-3 recruitment: N=3; for Arrestin recruitment (% TUG-905): technical duplicate
Description: For arrestin-3 recruitment assays, HEK293T cells were transfected with FFA1 receptor and a bystander NanoBiT split luciferase arrestin-3 recruitment biosensor. Cells were transfected and plated simultaneously in a reverse transfection protocol into a poly-D-lysine coated white 96-well plate. Per well, 60,000 cells were transfected with 5 ng plasmid expressing LgBiT with a N-terminal Lyn11 plasma membrane localisation tag, 5 ng plasmid expressing bovine arrestin-3 fused at its N-terminal to SmBiT tag and 30 ng plasmid expressing the human FFA1 receptor. Total DNA was made up to 100 ng total/well with empty pcDNA3 vector and transfected to cell suspension with 0.6 µg/well PEI. Following transfection cells were cultured for 24 h before use. On the day of assay, cells were washed twice with HBSS and incubated in HBSS for 30 min at 37 °C. NanoGlo substrate was added at a final 1:800 dilution and incubated in the dark for 10 min at 37 °C. […] Raw luminescence values were divided by baseline signal (average of first 5 data points prior to compound addition) and vehicle measurements subtracted from agonist treatment. Area under curves were calculated and concentration response curves plotted.

[1] = Nluc-FFA1, multiple concentration of labelled ligand association model

T1 sequence (O14842 whole entry): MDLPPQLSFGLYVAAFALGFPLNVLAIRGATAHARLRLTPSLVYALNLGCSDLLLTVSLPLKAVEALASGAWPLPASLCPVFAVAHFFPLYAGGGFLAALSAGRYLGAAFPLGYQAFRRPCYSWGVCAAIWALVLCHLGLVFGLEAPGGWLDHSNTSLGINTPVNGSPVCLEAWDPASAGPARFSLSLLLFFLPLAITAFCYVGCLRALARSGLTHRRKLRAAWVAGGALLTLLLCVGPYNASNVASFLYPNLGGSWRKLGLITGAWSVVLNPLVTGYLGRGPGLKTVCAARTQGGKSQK
Sequence of FFA1 (O14842 whole entry): as above
Sequence of FFA1-Nluc (O14842 whole entry): as above

internalization of FFA1-Nluc (FFA1-Nluc): No internalization | Kd (Nluc-FFA1; Nluc-FFA1, 95% confidence interval in parentheses, read-out: Kd, saturation BRET binding): 210 nM | kOn Nano-BRET (Nluc-FFA1; Nluc-FFA1, association then dissociation model): 26666.67 M⁻¹ s⁻¹ | kOff Nano-BRET (Nluc-FFA1; Nluc-FFA1, association then dissociation model, TUG-2591 100 nM then TUG-905 10 μM, or TUG-2597 […] then T360 10 μM): 0.00683 s⁻¹ | Kd (Nluc-FFA1; Nluc-FFA1, association then dissociation model, read-out: Kd Nano-BRET (kinetic)): 250 nM | kOff Nano-BRET Multiple Concentration (Nluc-FFA1; [1]): 0.0207 s⁻¹ | kOn Nano-BRET Multiple Concentration (Nluc-FFA1; [1]): 125000 M⁻¹ s⁻¹ | Kd (Nluc-FFA1; Nluc-FFA1, read-out: Kd Nano-BRET Multiple Concentration (kinetic)): 170 nM | BMax, saturation BRET binding (Nluc-FFA1; Nluc-FFA1, specific BRET, 95% confidence interval in parentheses): 0.31 (0.27-0.37) | kOff Nano-BRET Allosterism, Nluc-FFA1 (Nluc-FFA1; TUG-2591 (1 μM) in the presence of T360 (30μM), TUG-2597 (1 μM) in the presence of TUG-905 (30μM), 95% CI in parentheses): 0.034 (0.032-0.035) min-1 | Kd (Nluc-FFA1; footnotes of Supplementary Table 3, read-out: Kd values obtained in NanoBRET saturation experiments (used for pKi) (converted)): 200 nM | off-rate, times faster in single ligand NanoBRET compared with dual ligand DISCo-BRET (Nluc-FFA1; ratio of off-rates): ~ 10 | EMax (% TUG-905) arrestin-3 recruitment (FFA1): 91 ± 6% | pEC50 arrestin-3 recruitment (FFA1): 7.5 ± 0.4
Structure (SMILES): Cc1cc(OCCCNC(=O)CCCN2\C(=C/C=C/C=C/C3=[N+](C)c4ccc(S(=O)(=O)[O-])cc4C3(C)C)C(C)(C)c3ccccc32)ccc1-c1cccc(COc2ccc(CCC(=O)O)c(F)c2)c1 [TUG-2591]

internalization of FFA1-Nluc (FFA1-Nluc): No internalization | 'bottom' of the IC50 curve fit, Nano-BRET TUG-2591 (Nluc-FFA1; percentage of binding in the absence of competing ligand, tracer TUG-2591 100 nM): 150% | 'bottom' of the IC50 curve fit, Nano-BRET TUG-2597 (Nluc-FFA1; percentage of binding in the absence of competing ligand, tracer TUG-2597 […]): 5.3% | pIC50 Nano-BRET TUG-2597 (Nluc-FFA1; tracer TUG-2597 […], NBD/Nluc): 7.1±0.03 | pKi Nano-BRET TUG-2597 (Nluc-FFA1; using Kd TUG-2597 380 nM): 7.4±0.03 | EMax (% TUG-905) arrestin-3 recruitment (FFA1): 66 ± 8% | pEC50 arrestin-3 recruitment (FFA1): 8.9 ± 0.4
Structure (SMILES): COc1ccc(CCCC(C)(C)C)c(N2CCC(COc3cccc(C(CC(=O)O)C4CC4)c3)CC2)c1.O=C(O)C(F)(F)F (centres unmarked) [T360]
Specific BRET (690/450)% (Nluc-FFA1; log[Ligand] -5): 144.71% and 144.91% and 150.40% and 149.82% and 134.29% and 145.90% | Specific BRET (690/450)% (Nluc-FFA1; log[Ligand] -5.5): 150.41% and 165.34% and 156.87% and 151.43% and 153.00% and 148.40% | Specific BRET (690/450)% (Nluc-FFA1; log[Ligand] -6): 147.37% and 160.23% and 150.08% and 152.06% and 150.91% and 153.01% | Specific BRET (690/450)% (Nluc-FFA1; log[Ligand] -6.5): 152.25% and 156.48% and 155.51% and 156.07% and 157.69% and 151.71% | Specific BRET (690/450)% (Nluc-FFA1; log[Ligand] -7): 145.58% and 149.69% and 148.14% and 147.21% and 151.85% and 147.91% | Specific BRET (690/450)% (Nluc-FFA1; log[Ligand] -8): 131.96% and 136.95% and 136.24% and 131.47% and 126.78% and 129.57% | Specific BRET (690/450)% (Nluc-FFA1; log[Ligand] -9): 110.80% and 118.14% and 114.71% and 107.71% and 113.55% and 115.30% | Specific BRET (690/450)% (Nluc-FFA1; log[Ligand] -10): 99.19% and 105.01% and 94.99% and 98.91% and 101.09% and 100.81% | Specific BRET (540/450)% (Nluc-FFA1; log[Ligand] -6.5): 37.02% and 22.26% and 31.97% and 27.51% and 29.14% and 29.84% and 21.82% and 24.91% | Specific BRET (540/450)% (Nluc-FFA1; log[Ligand] -7): 53.44% and 33.59% and 38.71% and 49.07% and 47.92% and 48.08% and 44.12% and 39.90% | Specific BRET (540/450)% (Nluc-FFA1; log[Ligand] -8): 84.61% and 81.81% and 70.02% and 81.70% and 81.41% and 76.64% and 80.12% | Specific BRET (540/450)% (Nluc-FFA1; log[Ligand] -9): 105.73% and 99.36% and 90.61% and 103.73% and 98.31% and 99.33% and 93.77% | Specific BRET (540/450)% (Nluc-FFA1; log[Ligand] -10): 104.20% and 95.80% and 91.09% and 108.91% and 101.37% and 98.63% and 98.32% and 101.68% | Arrestin recruitment (% TUG-905) (FFA1; log[Ligand] -7): 60.5575 % TUG-905 and 49.7987 % TUG-905 and 50.2806 % TUG-905 and 80.5606 % TUG-905 and 71.6469 % TUG-905 and 70.6208 % TUG-905 | Arrestin recruitment (% TUG-905) (FFA1; log[ligand] -6): 47.2004 % TUG-905 and 63.2995 % TUG-905 and 73.3709 % TUG-905 and 81.6896 % TUG-905 and 75.2182 % TUG-905 and 56.718 % TUG-905 | Arrestin recruitment (% TUG-905) (FFA1; log[ligand] -6.5): 57.9984 % TUG-905 and 49.7595 % TUG-905 and 71.7903 % TUG-905 and 68.6055 % TUG-905 and 72.4316 % TUG-905 and 77.5018 % TUG-905 | Arrestin recruitment (% TUG-905) (FFA1; log[ligand] -7.5): 57.0191 % TUG-905 and 67.1382 % TUG-905 and 59.7164 % TUG-905 and 62.616 % TUG-905 and 83.9201 % TUG-905 and 49.002 % TUG-905

— publication PMC12254266, “Multicolored sequential resonance energy transfer for detection of simultaneous ligand binding at G protein-coupled receptors” (Nature Communications, 2025)
